Laboratory results published in ChEMBL document CHEMBL5537115, “New broad-spectrum and potent antibacterial agents with dual-targeting mechanism: Promoting FtsZ polymerization and disrupting bacterial membranes” (Eur J Med Chem, 2024).
Calls of active or inactive are those of the source. No cut-off for these calls is given here.

Tests used:
Enterococcus faecium [1] = assay: Antibacterial activity against vancomycin-susceptible Enterococcus faecium ATCC19434 assessed as bacterial growth inhibition incubated for 20 hrs by CLSI based broth microdilution method; format: functional
[2] = Hemolytic activity in mouse erythrocytes at 16 ug/ml incubated for 1 hr by absorbance based assay; format: toxicity, cell-based, Erythrocyte; details: at 16 µg/mL, read-out: Activity
[3] = biological target: T1, Cell division protein FtsZ (Bacillus subtilis) (UniProt A5Z1V5); assay: Induction of FtsZ polymerization in Bacillus subtilis preincubated for 10 mins followed by GTP addition measured upto 30 mins by absorbance based assay; details: dose 2.5-10 µg/ml, time 40.0 min
T1 sequence (whole entry): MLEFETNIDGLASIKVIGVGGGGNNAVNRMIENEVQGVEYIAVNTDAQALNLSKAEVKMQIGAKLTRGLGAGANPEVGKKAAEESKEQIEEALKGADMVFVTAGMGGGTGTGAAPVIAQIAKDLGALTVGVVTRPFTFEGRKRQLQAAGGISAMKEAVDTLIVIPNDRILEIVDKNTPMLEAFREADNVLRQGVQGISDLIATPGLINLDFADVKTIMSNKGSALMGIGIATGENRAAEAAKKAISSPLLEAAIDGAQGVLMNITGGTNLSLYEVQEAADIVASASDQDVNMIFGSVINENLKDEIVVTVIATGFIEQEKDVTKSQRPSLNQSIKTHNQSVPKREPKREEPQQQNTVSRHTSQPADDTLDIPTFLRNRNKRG

Staphylococcus aureus [4] = assay: Inhibition of biofilm formation of Staphylococcus aureus ATCC25923 incubated for 20 hrs by crystal violet staining based analysis; format: functional, organism-based
[5] = biological target: T1, Cell division protein FtsZ (Bacillus subtilis); assay: Induction of FtsZ polymerization in Bacillus subtilis at 2.5 to 10 ug/ml preincubated with compound followed by GTP addition by absorbance based assay; details: dose 2.5-10 µg/ml, time 40.0 min, TDE = time-dependent effect
Escherichia coli [6] = assay: Antibacterial activity against penicillin-susceptible Escherichia coli ATCC25922 assessed as bacterial growth inhibition incubated for 20 hrs by CLSI based broth microdilution method; format: functional
Bacillus subtilis [7] = assay: Antibacterial activity against penicillin-susceptible Bacillus subtilis ATCC9372 incubated for 18 to 24 hrs; format: functional; details: time 18-24 hrs
Staphylococcus aureus [8] = assay: Antibacterial activity against methicillin-resistant Staphylococcus aureus ATCC43300 incubated for 18 to 20 hrs; format: functional; details: time 18-20 hrs
Streptococcus pyogenes = assay: Antibacterial activity against erythromycin-resistant Streptococcus pyogenes 2 clinical isolate assessed as bacterial growth inhibition incubated for 20 hrs by CLSI based broth microdilution method; format: functional
Klebsiella pneumoniae = assay: Antibacterial activity against Klebsiella pneumoniae ATCC BAA-1902 assessed as bacterial growth inhibition incubated for 20 hrs by CLSI based broth microdilution method; format: functional
Staphylococcus aureus [9] = assay: Disruption of inner membrane in Staphylococcus aureus ATCC25923 by PI staining based analysis; format: functional, organism-based; details: time 12.0 min, TDE = time-dependent effect
Staphylococcus aureus [10] = assay: Bactericidal activity against Staphylococcus aureus ATCC25923 assessed as log reduction in bacterial growth at 0.25 to 0.5 ug/ml measured for 9 to 12 hrs by time-kill assay; format: functional; details: dose 0.25-0.5 µg/ml; time 9-12 hrs
Enterococcus faecalis [11] = assay: Antibacterial activity against vancomycin-susceptible Enterococcus faecalis ATCC29212 assessed as bacterial growth inhibition incubated for 20 hrs by CLSI based broth microdilution method; format: functional
Staphylococcus aureus [12] = assay: Bactericidal activity against Staphylococcus aureus ATCC25923 measured for 24 hrs by time-kill assay; format: functional, organism-based; details: dose 0.125-0.5 µg/ml
Staphylococcus aureus [13] = assay: Antibacterial activity against Staphylococcus aureus clinical isolate incubated for 18 to 24 hrs; format: functional; details: time 18-24 hrs
Escherichia coli [14] = assay: Antibacterial activity against wild-type Escherichia coli BW25113 assessed as bacterial growth inhibition incubated for 20 hrs by CLSI based broth microdilution method; format: functional
Enterococcus faecium [15] = assay: Antibacterial activity against vancomycin-resistant Enterococcus faecium ATCC51559 assessed as bacterial growth inhibition incubated for 20 hrs by CLSI based broth microdilution method; format: functional
Staphylococcus aureus [16] = assay: Antibacterial activity against Staphylococcus aureus clinical isolate assessed as bacterial growth inhibition incubated for 20 hrs by CLSI based broth microdilution method; format: functional
Staphylococcus aureus [17] = assay: Effect on proton gradient of cytoplasmic membrane in Staphylococcus aureus ATCC25923 at 1 ug/ml measured after 20 mins by diSC35 dye based analysis; format: functional, organism-based; details: Cytoplasm membrane, dose 1.0 µg/ml
Staphylococcus aureus [18] = assay: Induction of resistance development in Staphylococcus aureus ATCC25923 assessed as fold increase in MIC at 0.5 times MIC measured after 32 days by multi-passage resistance assay relative to control; format: functional; details: time 32.0 day
Staphylococcus aureus [19] = assay: Antibacterial activity against erythromycin-susceptible Staphylococcus aureus ATCC25923 assessed as bacterial growth inhibition incubated for 20 hrs by CLSI based broth microdilution method; format: functional
Escherichia coli [20] = assay: Disruption of outer membrane in Escherichia coli ATCC25922 at 16 ug/ml measured after 10 mins by NPN dye based analysis; format: functional, organism-based; details: dose 16.0 µg/ml
Bacillus subtilis [21] = assay: Selectivity ratio of MBC for penicillin-susceptible Bacillus subtilis ATCC9372 to MIC for penicillin-susceptible Bacillus subtilis ATCC9372; format: functional
Staphylococcus aureus [22] = assay: Inhibition of bacterial proliferation of Staphylococcus aureus ATCC25923 at 0.125 ug/ml measured for 24 hrs by time-kill assay; format: functional, organism-based; details: dose 0.125 µg/ml
Enterococcus faecalis [23] = assay: Antibacterial activity against vancomycin-resistant Enterococcus faecalis ATCC51299 assessed as bacterial growth inhibition incubated for 20 hrs by CLSI based broth microdilution method; format: functional
Bacillus subtilis [24] = assay: Antibacterial activity against penicillin-susceptible Bacillus subtilis ATCC9372 assessed as bacterial growth inhibition incubated for 20 hrs by CLSI based broth microdilution method; format: functional
Acinetobacter baumannii = assay: Antibacterial activity against Acinetobacter baumannii ATCC19606 incubated for 18 to 24 hrs; format: functional; details: time 18-24 hrs
Staphylococcus aureus [25] = assay: Disruption of inner membrane in Staphylococcus aureus ATCC25923 at 0.5 ug/ml measured after 12 mins by PI staining based analysis; format: functional, organism-based; details: dose 0.5 µg/ml
Staphylococcus aureus [26] = assay: Induction of morphological change in Staphylococcus aureus ATCC25923 assessed as loss of bacterial membrane integrity at 16 times MIC incubated for 2 hrs by TEM analysis; format: functional, organism-based
Escherichia coli [27] = assay: Disruption of inner membrane in Escherichia coli ATCC25922 by PI staining based analysis; format: functional, organism-based; details: time 12.0 min, TDE = time-dependent effect
Staphylococcus aureus [28] = assay: Antibacterial activity against Staphylococcus aureus ATCC25923 infected in Kunming mouse model assessed as bacterial growth reduction at 5 to 25 mg/kg, ip; format: functional, organism-based; details: dose 5-25 mg/kg
Bacillus subtilis [29] = assay: Induction of morphological change in Bacillus subtilis ATCC9372 assessed as increase in cell length at 0.5 times MIC by phase contrast microscopy; format: functional, organism-based
Staphylococcus aureus [30] = assay: Antibacterial activity against penicillin-resistant Staphylococcus aureus ATCC31007 assessed as bacterial growth inhibition incubated for 20 hrs by CLSI based broth microdilution method; format: functional
Staphylococcus aureus [31] = assay: Inhibition of biofilm formation of Staphylococcus aureus ATCC25923 at 0.5 ug/ml incubated for 20 hrs by crystal violet staining based analysis relative to control; format: functional
Staphylococcus aureus [32] = assay: Antibacterial activity against methicillin-resistant Staphylococcus aureus ATCC43300 assessed as bacterial growth inhibition incubated for 20 hrs by CLSI based broth microdilution method; format: functional

## C[n+]1cc(-c2ccccc2)c(/C=C/c2ccc(C(C)(C)C)cc2)cc1-c1ccc(C(C)(C)C)cc1.[I-]
Enterococcus faecium [1]
  MIC: 0.125 µg/mL
[2]
  hemolysis at 1 h, 16 ug/ml: 6.37%
[3]
  Activity: Dose-Dependent Effect
Staphylococcus aureus [4]
  inhibition: Dose-Dependent Effect
[5]
  Activity: Tde
Escherichia coli [6]
  MIC: 4 µg/mL
Bacillus subtilis [7]
  MBC: 0.25 µg/mL
Staphylococcus aureus [8]
  MBC: 0.5 µg/mL
Streptococcus pyogenes
  MIC: 2 µg/mL
Klebsiella pneumoniae
  MIC: 4 µg/mL
Staphylococcus aureus [9]
  Activity: Tde
Staphylococcus aureus [10]
  Activity: 0 log10CFU/ml
Enterococcus faecalis [11]
  MIC: 0.25 µg/mL
Staphylococcus aureus [12]
  Activity: Dose-Dependent Effect
Staphylococcus aureus [13]
  MBC: 0.125 µg/mL
Escherichia coli [14]
  MIC: 2 µg/mL
Enterococcus faecium [15]
  MIC: 0.5 µg/mL
Staphylococcus aureus [16]
  MIC: 0.062 µg/mL
Staphylococcus aureus [17]
  Activity: Active
Staphylococcus aureus [18]
  fold change (FC): 2
Staphylococcus aureus [19]
  MIC: 0.062 µg/mL
Escherichia coli [20]
  Activity: Active
Bacillus subtilis [21]
  Ratio: 2
Staphylococcus aureus [22]
  inhibition: inactive
Enterococcus faecalis [23]
  MIC: 0.5 µg/mL
Bacillus subtilis [24]
  MIC: 0.125 µg/mL
Acinetobacter baumannii
  MBC: 1 µg/mL
Staphylococcus aureus [25]
  Activity: Active
Staphylococcus aureus [26]
  Activity: Active
Escherichia coli [27]
  Activity: Tde
Staphylococcus aureus [28]
  Activity: Active
Bacillus subtilis [29]
  Activity: Active
Staphylococcus aureus [30]
  MIC: 1 µg/mL
Staphylococcus aureus [31]
  inhibition at 0.5 µg/mL: 6.06%
Staphylococcus aureus [32]
  MIC: 0.125 µg/mL
